According to patent US20240108629A1, “AZAQUINAZOLINE DERIVATIVES FOR USE IN TREATING OR PREVENTING DIROFILARIA INFECTION IN A MAMMAL” (Liverpool School of Tropical Medicine, priority 2021, published 2024):

Experiments:
[1] = tested on: D. immitis L3-L4 larval Wolbachia in NSG mice; assay: In vivo D. immitis larvae mouse assay (Example 3A); details: for D. immitis L4 Efficacy (median % reduction Wolbachia): larvae retrieved 2 weeks after infection
D. immitis mf Wolbachia = assay: In vitro D. immitis microfilariae assay (Wolbachia wsp copy number by qPCR); type: cell-based; details: six-day continuous exposure in vitro
[2] = tested on: D. immitis L3-L4 larval Wolbachia in NSG mice; assay: In vivo D. immitis larvae mouse assay (Example 3B); details: for n larvae depleted ≥50% (number/total) / n larvae depleted ≥50% (percentage of larvae): oral 200 mpk bid x 1; for D. immitis L4 Efficacy (median % reduction Wolbachia): oral 200 mpk bid x 1 (single day dosing), larvae retrieved 2 weeks after infection
D. immitis L4 Wolbachia = assay: In vitro D. immitis L4 larvae assay (Wolbachia wsp copy number by qPCR); type: cell-based; details: for D. immitis L4 Efficacy (median % reduction Wolbachia): six-day continuous exposure in vitro

SMILES: C[C@H]1COCCN1c1nc(NCc2cccnc2C(F)(F)F)c2cccnc2n1 [Compound A, (S)-2-(3-methylmorpholino)-N-((2-(trifluoromethyl)pyridin-3-yl)methyl)pyrido[2,3-d]pyrimidin-4-amine]
- n larvae depleted ≥80% (number/total) ([1]; oral 200 mpk bid x 2): 10/11
- n larvae depleted ≥80% (percentage of larvae) ([1]; oral 200 mpk bid x 2): (90.9%)
- D. immitis L4 Efficacy (median % reduction Wolbachia) ([1]; oral 200 mpk bid x 2 (days 1-2), 200 mg/kg): 89.7%
- D. immitis mf Efficacy (median % reduction Wolbachia) (D. immitis mf Wolbachia; 50 nM): 64.1%
- D. immitis mf Efficacy (median % reduction Wolbachia) (D. immitis mf Wolbachia; 200 nM): 88.8%
- D. immitis mf Efficacy (median % reduction Wolbachia) (D. immitis mf Wolbachia; 5000 nM): 96.0%
- n larvae depleted ≥50% (number/total) [2]: 4/5
- n larvae depleted ≥50% (percentage of larvae) [2]: (80%)
- D. immitis L4 Efficacy (median % reduction Wolbachia) ([2]; 200 mg/kg): 52.1%

SMILES: CC1(C)CCN(c2nc(NCc3cccnc3C(F)(F)F)c3cccnc3n2)CC1 [Compound B, 2-(4,4-dimethylpiperidin-1-yl)-N-((2-(trifluoromethyl)pyridin-3-yl)methyl)pyrido[2,3-d]pyrimidin-4-amine]
- D. immitis mf Efficacy (median % reduction Wolbachia) (D. immitis mf Wolbachia; 0.5 nM): 63.9%
- D. immitis mf Efficacy (median % reduction Wolbachia) (D. immitis mf Wolbachia; 50 nM): 53.6%
- D. immitis L4 Efficacy (median % reduction Wolbachia) (D. immitis L4 Wolbachia; 1 nM): 45.4%
- D. immitis L4 Efficacy (median % reduction Wolbachia) (D. immitis L4 Wolbachia; 10 nM): 50.7%
- D. immitis L4 Efficacy (median % reduction Wolbachia) (D. immitis L4 Wolbachia; 50 nM): 57.4%
- Wolbachia depletion in D. immitis L4 (D. immitis L4 Wolbachia; doses between 50-10 nM, in vitro): > 50%

SMILES: FC1(F)CCN(c2nc(NCc3ccccc3C(F)(F)F)c3cccnc3n2)CC1 [Compound C, 2-(4,4-difluoropiperidin-1-yl)-N-(2-(trifluoromethyl)benzyl)pyrido[2,3-d]pyrimidin-4-amine]
- n larvae depleted ≥50% (number/total) [2]: 2/3
- n larvae depleted ≥50% (percentage of larvae) [2]: (67%)
- D. immitis L4 Efficacy (median % reduction Wolbachia) [2]: 61.7%

SMILES: C[C@H]1c2cccc(O)c2C(=O)C2=C(O)[C@]3(O)C(=O)C(C(N)=O)=C(O)[C@@H](N(C)C)[C@@H]3[C@@H](O)[C@@H]21 [Doxycycline, doxycycline, reference compound]
- n larvae depleted ≥80% (number/total) ([1]; oral 50 mpk qd x 7): 4/9
- n larvae depleted ≥80% (percentage of larvae) ([1]; oral 50 mpk qd x 7): (44.4%)
- D. immitis L4 Efficacy (median % reduction Wolbachia) ([1]; oral 50 mpk qd x 7 (days 1-7 post-infection)): 69.6%
- D. immitis mf Efficacy (median % reduction Wolbachia) (D. immitis mf Wolbachia; 50 nM): 10.0%
- D. immitis mf Efficacy (median % reduction Wolbachia) (D. immitis mf Wolbachia; 5000 nM): 58.8%
- D. immitis L4 Efficacy (median % reduction Wolbachia) (D. immitis L4 Wolbachia; 5000 nM): 65.9%

SMILES: FC(F)(F)OC1CCN(c2nc(NCc3cccnc3C(F)(F)F)c3cccnc3n2)CC1 [Compound D, 2-(4-(trifluoromethoxy)piperidin-1-yl)-N-((2-(trifluoromethyl)pyridin-3-yl)methyl)pyrido[2,3-d]pyrimidin-4-amine]
- n larvae depleted ≥50% (number/total) [2]: 8/12
- n larvae depleted ≥50% (percentage of larvae) [2]: (67%)
- D. immitis L4 Efficacy (median % reduction Wolbachia) [2]: 53.6%
